This assay concerns rabbit progesterone receptor (rbPR) and glucocorticoid receptor (rbGR). The assay is described as follows: Receptor-binding assays, ratio of relative binding affinities rbPR/rbGR. As to conditions: ratio of relative binding affinities (RBA = EC50 of standard/EC50 of test compound x 100) for rbPR and rbGR. The protocol:
Certain antiprogestins were tested in receptor-binding assays for their ability to bind rabbit progesterone receptor (rbPR) and glucocorticoid receptor (rbGR). Briefly, cytosol containing PR or GR were prepared in TEGMD buffer (10 mM Tris, pH 7.2, 1.5 mM EDTA, 0.2 mM sodium molybdate, 10% glycerol, 1 mM DTT) from uterus or thymus, respectively, of estradiol-primed immature rabbits. For PR binding, the cytosol was incubated with 6 nM 1,2-[^3H]progesterone (50.0 Ci/mmole) and competitors were added at concentrations from 2 to 100 nM. For binding to GR, the cytosol was incubated with 6 nM 6,7-[^3H]-dexamethasone (40 Ci/mmol) and test compounds were added at concentrations from 20 to 100 nM. After overnight incubation at 4 C, bound and unbound [^3H] steroids were separated by addition of dextran-coated charcoal and centrifugation at 2100×g for 15 min at 4 C. Supernatants containing the [3H]-steroid receptor complexes were decanted into vials containing 4 ml Optifluor (Packard Instrument Co.), vortexed, equilibrated in a liquid scintillation counter for 30 minutes and then counted for 2 minutes. The EC50 (Effective Concentration) for each standard curve and each of the compound curves was determined by entering the counting data into a four parameter sigmoidal computer program (RiaSmart® Immunoassay Data Reduction Program, Packard Instrument Co., Meriden, Conn.). Relative binding affinity (RBA) for each compound was calculated using the following equation: EC50 of standard/EC50 of test compound×100. The standards for the PR and GR assays were unlabeled progesterone and dexamethasone, respectively. The results of these experiments are summarized in Table 1, as a ratio of the relative binding affinities of each compound for the rbPR and rbGR receptors (rbPR/rbGR).

For `COCC(=O)[C@@]1(OC(C)=O)CC[C@H]2[C@@H]3CCC4=CC(=O)CCC4=C3[C@@H](c3ccc(N(C)C)cc3)C[C@@]21C` [CDB-4124, 21-methoxy-17α-acetoxy-11β-(4 N,N-dimethylaminophenyl)-19-norpregna-4,9-diene-3,20-dione], the rbPR/rbGR was 1.58.
